These results are taken from patent publication US20140072662A1, “Andrographis Paniculata Compositions and Methods for Treatment of Addictions” (Omeros Corporation, priority 2012, published 2014).

Entries after “also recorded” stand apart in the source; their conditions may differ. Like-named read-outs stand apart in the source and are kept apart here.

In experiment [1] the target is T1, GAL-4-PPAR-gamma chimera (Homo sapiens, UniProt P37231).
T1 construct: GAL-4 (fusion partner of the chimera)
Conditions: compounds isolated from EtOH extract of licorice; cited from earlier work.

Experiment [2] has as its target T2, PPARγ (Homo sapiens, UniProt P37231).
T2 sequence (P37231 1-505): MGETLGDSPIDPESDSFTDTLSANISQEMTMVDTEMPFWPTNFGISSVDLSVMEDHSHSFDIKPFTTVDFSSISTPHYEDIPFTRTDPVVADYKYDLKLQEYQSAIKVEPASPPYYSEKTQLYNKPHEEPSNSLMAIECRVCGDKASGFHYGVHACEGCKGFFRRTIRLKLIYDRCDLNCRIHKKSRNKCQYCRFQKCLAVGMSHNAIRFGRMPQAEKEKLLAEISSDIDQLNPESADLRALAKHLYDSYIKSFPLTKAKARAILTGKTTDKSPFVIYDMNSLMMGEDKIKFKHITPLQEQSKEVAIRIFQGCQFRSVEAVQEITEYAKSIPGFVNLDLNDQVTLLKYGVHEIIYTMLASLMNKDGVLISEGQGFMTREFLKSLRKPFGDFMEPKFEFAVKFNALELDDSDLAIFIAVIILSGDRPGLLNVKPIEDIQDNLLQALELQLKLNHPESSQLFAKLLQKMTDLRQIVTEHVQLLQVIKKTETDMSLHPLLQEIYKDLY
Conditions: cited from earlier work.

Experiment [3] deals with T2, PPARγ. Conditions: cited from earlier work. The source holds these as a separate data set.
Experiment [4] deals with PPAR γ ligand binding domain (Homo sapiens, UniProt P37231). Conditions: cited from earlier work.
Experiment [5] addresses T3, PPARγ (Mus musculus, UniProt P37238).
T3 construct: host or cells: 3T3-L1
T3 sequence (P37238 1-505): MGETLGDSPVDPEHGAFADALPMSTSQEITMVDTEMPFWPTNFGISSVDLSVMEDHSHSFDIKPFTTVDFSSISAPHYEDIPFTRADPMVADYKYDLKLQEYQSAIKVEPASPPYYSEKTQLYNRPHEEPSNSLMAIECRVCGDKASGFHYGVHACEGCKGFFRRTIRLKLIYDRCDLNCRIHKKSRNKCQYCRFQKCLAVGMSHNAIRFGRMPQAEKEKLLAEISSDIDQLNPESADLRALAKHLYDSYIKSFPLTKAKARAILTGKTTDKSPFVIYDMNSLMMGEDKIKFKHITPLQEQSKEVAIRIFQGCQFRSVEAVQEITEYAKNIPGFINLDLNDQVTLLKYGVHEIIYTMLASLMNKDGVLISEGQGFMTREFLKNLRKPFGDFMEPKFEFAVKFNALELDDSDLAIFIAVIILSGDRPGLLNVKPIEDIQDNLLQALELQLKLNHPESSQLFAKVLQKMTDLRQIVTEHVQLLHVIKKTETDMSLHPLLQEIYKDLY
Conditions: 3T3-L1 cells; cited from earlier work.

For experiment [6], the target named is T4, PPAR α (Mus musculus, UniProt P23204).
T4 construct: host or cells: 3T3-L1
T4 sequence (P23204 1-468): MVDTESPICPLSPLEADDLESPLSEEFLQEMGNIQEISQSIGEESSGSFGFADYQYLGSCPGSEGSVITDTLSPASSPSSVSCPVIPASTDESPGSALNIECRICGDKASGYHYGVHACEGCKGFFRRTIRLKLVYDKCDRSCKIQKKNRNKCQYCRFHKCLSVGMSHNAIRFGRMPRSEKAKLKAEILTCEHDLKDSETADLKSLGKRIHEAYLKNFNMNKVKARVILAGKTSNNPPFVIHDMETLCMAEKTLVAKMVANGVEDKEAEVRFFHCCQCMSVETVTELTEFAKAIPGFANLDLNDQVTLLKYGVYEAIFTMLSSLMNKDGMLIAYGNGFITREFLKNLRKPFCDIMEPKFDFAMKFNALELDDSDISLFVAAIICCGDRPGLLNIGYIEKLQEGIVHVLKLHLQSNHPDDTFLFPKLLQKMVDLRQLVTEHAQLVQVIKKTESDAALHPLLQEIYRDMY
Conditions: 3T3-L1 cells; cited from earlier work.

Experiment [7] deals with T5, PPAR δ ligand binding domain (Homo sapiens, UniProt Q03181).
T5 sequence (Q03181 211-439 limits assumed): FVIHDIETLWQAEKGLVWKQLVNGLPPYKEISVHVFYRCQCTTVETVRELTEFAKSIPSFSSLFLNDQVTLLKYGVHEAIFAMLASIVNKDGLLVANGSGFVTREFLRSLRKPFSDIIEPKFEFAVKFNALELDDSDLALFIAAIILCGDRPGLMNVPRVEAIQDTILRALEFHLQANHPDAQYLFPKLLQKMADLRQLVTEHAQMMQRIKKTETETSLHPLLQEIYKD
Conditions: cited from earlier work.

In experiment [8] the target is T3, PPARγ. Conditions: 3T3-L1 preadipocytes; cited from earlier work.
In experiment [9] the test system is msP rats. Nature of the experiment: Central PPAR antagonist GW9662 on andrographolide-induced reduction of alcohol intake in msP rats. Type of experiment: in vivo, rat. As to the method: GW9662, purchased from Tocris (Bristol, UK), was dissolved in 10% DMSO and 3% Tween 80 and the final volume (5 μg/μl) was adjusted adding distilled water. GW9662 was injected ICV in a volume of 1 μl per rat by means of a stainless-steel injector 2.5 mm longer than the guide cannula, so that its tip protruded into the ventricle.
A 22-gauge guide cannula for intracerebroventricular (ICV) drug injections was stereotaxically implanted into the lateral cerebroventricle with the following coordinates: anteroposterior (AP)=1.0; lateral (L)=1.8; ventral (V)=2.0 with reference to bregma.
A widely used method for testing fluid preference is the two-bottle choice paradigm, in which water and 10% (v/v) alcohol solution were offered in graduated drinking tubes equipped with metallic drinking spouts and their consumption was measured by reading the volume consumed from the graduated tubes. Food intake was measured by weighing the food containers and taking into account spillage. Alcohol, water and food intakes are expressed as g/kg to reduce the influence of differences in body weight.
To examine whether the effect of andrographolide on alcohol intake is mediated by brain PPAR receptors, another group of msP rats (N=31) was treated ICV with 5 μg/rat of the PPAR antagonist GW9662 and then injected with andrographolide (10 mg/kg) or its vehicle. In a between-subject design each group of animals (N=7-8/group) received a different drug dose for 6 consecutive days. GW9662 or its vehicle were administered twice daily at 12 hours and 30 minutes before the beginning of the dark period of the light-dark cycle. Andrographolide was given immediately after GW9662 administrations.
Alcohol, water, and food intake was recorded at 0.5, 2, 8 and 24 hours from the moment that alcohol was made available.

T1 sequence (P37231 with tags, fused parts or gaps limits assumed): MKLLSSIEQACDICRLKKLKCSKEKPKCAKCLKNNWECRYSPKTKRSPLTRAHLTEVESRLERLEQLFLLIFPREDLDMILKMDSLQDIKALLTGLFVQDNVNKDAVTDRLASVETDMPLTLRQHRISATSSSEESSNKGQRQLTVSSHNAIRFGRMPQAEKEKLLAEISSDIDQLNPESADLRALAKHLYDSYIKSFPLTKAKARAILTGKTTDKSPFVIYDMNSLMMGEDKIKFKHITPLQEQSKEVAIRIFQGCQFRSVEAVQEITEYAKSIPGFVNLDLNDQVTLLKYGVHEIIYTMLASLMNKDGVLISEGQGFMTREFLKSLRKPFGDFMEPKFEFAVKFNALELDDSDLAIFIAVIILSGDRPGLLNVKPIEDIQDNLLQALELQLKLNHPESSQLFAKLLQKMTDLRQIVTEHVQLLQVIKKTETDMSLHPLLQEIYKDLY

Regarding `CC(C)=CCc1cc([C@H]2Oc3cc(O)ccc3C[C@H]2O)ccc1O` [(2R,3R)-3,4′,7-trihydroxy-3′-prenylflavane], the PPAR-gamma ligand-binding activity entry in [1] is “significant PPAR-gamma ligand-binding activity”.

For `CC(C)=CCC/C(C)=C\CO` [nerol], the “activation of PPARγ” value in experiment [2] was “not”. For the compound `O=c1c(-c2ccc(O)cc2)coc2cc(O)cc(O)c12` [genistein], the “activation of PPARγ” value in [3] is recorded as “potent activators of PPARγ”.

On to `COc1ccc([C@@H]2COc3cc(O)ccc3C2)c(O)c1O` [(3R)-2′,3′,7-trihydroxy-4′-methoxyisoflavan], for which the PPAR-gamma ligand-binding activity entry in experiment [1] is on record as “significant PPAR-gamma ligand-binding activity”. Consider `CC1(C)C=Cc2c(ccc3c2OC[C@@H](c2cc(C=O)c(O)cc2O)C3)O1` [5′-formylglabridin], for which the PPAR-gamma ligand-binding activity result in experiment [1] was “significant PPAR-gamma ligand-binding activity”.

In the case of `CC(C)=CCCC(C)CCO` (stereo not drawn) [Citronellol, citronellol], the “activation of PPARγ” value in experiment [2] is recorded as “activate PPARγ”. As for `CC(C)=CCc1cc([C@@H]2CC(=O)c3ccc4c(c3O2)C=CC(C)(C)O4)ccc1O` [shinflavanone], the PPAR-gamma ligand-binding activity result in [1] was “significant PPAR-gamma ligand-binding activity”. For `CC1(C)C=Cc2c(ccc(-c3coc4cc(O)ccc4c3=O)c2O)O1` [glabrone], the PPAR-gamma ligand-binding activity entry in [1] is on record as “significant PPAR-gamma ligand-binding activity”. With `CC(C)=CCc1cc([C@@H]2CC(=O)c3ccc(O)c(CC=C(C)C)c3O2)ccc1O` [glabrol], the PPAR-gamma ligand-binding activity result in [1] was “significant PPAR-gamma ligand-binding activity”. In the case of `CC(C)=CCc1c(O)cc(O)c2c(=O)c(-c3ccc(O)c(O)c3)coc12` [gancaonin L], the PPAR-gamma ligand-binding activity entry in experiment [1] is reported as “significant PPAR-gamma ligand-binding activity”. For `CC(C)=CCc1c(O)ccc([C@@H]2COc3c(ccc(O)c3CC=C(C)C)C2)c1O` [kanzonol X], in experiment [1], the PPAR-gamma ligand-binding activity entry is reported as “significant PPAR-gamma ligand-binding activity”.

Regarding `CC1(C)C=Cc2c(ccc3cc(-c4ccc(O)cc4O)c(=O)oc23)O1` [kanzonol W], in experiment [1], the PPAR-gamma ligand-binding activity result is recorded as “significant PPAR-gamma ligand-binding activity”. For the compound licoflavanone A, the PPAR-gamma ligand-binding activity result in experiment [1] is “significant PPAR-gamma ligand-binding activity”. As for `CCCC\C=C/C=C/C=C\CCCCCCCC(=O)O` [PUA, punicic acid], the “binding to PPAR γ ligand binding domain” value in experiment [4] is given as “bind”. Besides, the “PPAR γ reporter activity” value in experiment [5] is recorded as “dose-dependent increase”. Also, the “PPAR α reporter activity” value in experiment [6] is given as “dose-dependent increase”. In [7], the “binding to PPAR δ ligand binding domain” value was “bind”. With `CC1=CC(=O)CC(C)(C)[C@@]1(O)/C=C/C(C)=C\C(=O)O` [abscisic acid], the “activity of PPARγ” value in experiment [8] is on record as “increase the activity of PPARγ”. Regarding `CC1(C)C=Cc2c(ccc3c2OC[C@H]2c4ccc(O)cc4O[C@@H]32)O1` [shinpterocarpin], the PPAR-gamma ligand-binding activity result in experiment [1] is given as “significant PPAR-gamma ligand-binding activity”. As to `O=C(Nc1ccccc1)c1cc([N+](=O)[O-])ccc1Cl` [GW9662], the alcohol drinking result in [9] (GW9662 5 μg/rat ICV alone, twice daily, 6 days, p>0.05) was “no similar effect”. For the same compound, the “blockade of the andrographolide effect on alcohol drinking” value in experiment [9] (GW9662 5 μg/rat ICV given before andrographolide 10 mg/kg) was “blocked the effect of andrographolide at 8 and 24 hours starting from the third day of treatment; also recorded: completely prevents the andrographolide effect on alcohol drinking”. For `COc1cc(O)ccc1/C=C/C(=O)c1ccc(O)cc1` [echinatin], the PPAR-gamma ligand-binding activity entry in [1] is “significant PPAR-gamma ligand-binding activity”. Regarding `COc1ccc(-c2coc3cc(O)cc(O)c3c2=O)cc1` [biochanin A], in [3], the “activation of PPARγ” value is on record as “potent activators of PPARγ”. For `CC(C)=CCC/C(C)=C/CO` [geraniol], the “activation of PPARγ” value in experiment [2] was “activate PPARγ”.
